According to ChEMBL document CHEMBL1144462, “Spread in an Italian hospital of a clonal Acinetobacter baumannii strain producing the TEM-92 extended-spectrum beta-lactamase” (2007):

Tested on: Acinetobacter baumannii
Assay: Antibacterial activity against TEM92 ESBL-producing Acinetobacter baumannii by CLSI method
Type: functional

Row | Molecule | MIC
1 | C[C@@H](O)[C@H]1C(=O)N2C(C(=O)O)=C(S[C@@H]3CN[C@H](C(=O)N(C)C)C3)[C@H](C)[C@H]12 [MEROPENEM] | ≤ 2 µg/mL
2 | GENTAMICIN | > 128 µg/mL
3 | CO/N=C(\C(=O)N[C@@H]1C(=O)N2C(C(=O)O)=C(COC(C)=O)CS[C@H]12)c1csc(N)n1 [CEFOTAXIME] | > 128 µg/mL
4 | CO/N=C(\C(=O)N[C@@H]1C(=O)N2C(C(=O)O)=C(CSc3nc(=O)c(O)nn3C)CS[C@H]12)c1csc(N)n1 [CEFTRIAXONE] | > 128 µg/mL
5 | C[C@H]1COc2c(N3CCN(C)CC3)c(F)cc3c(=O)c(C(=O)O)cn1c23.C[C@H]1COc2c(N3CCN(C)CC3)c(F)cc3c(=O)c(C(=O)O)cn1c23.O [LEVOFLOXACIN] | > 32 µg/mL
6 | NC[C@H]1O[C@H](O[C@H]2[C@H](O)[C@@H](O[C@H]3O[C@H](CO)[C@@H](O)[C@H](N)[C@H]3O)[C@H](N)C[C@@H]2N)[C@H](N)C[C@@H]1O [TOBRAMYCIN] | > 32 µg/mL
7 | CCN1CCN(C(=O)N[C@@H](C(=O)N[C@@H]2C(=O)N3[C@@H]2SC(C)(C)[C@@H]3C(=O)O)c2ccccc2)C(=O)C1=O [PIPERACILLIN] | > 128 µg/mL
8 | NCC[C@H](O)C(=O)N[C@@H]1C[C@H](N)[C@@H](O[C@H]2O[C@H](CN)[C@@H](O)[C@H](O)[C@H]2O)[C@H](O)[C@H]1O[C@H]1O[C@H](CO)[C@@H](O)[C@H](N)[C@H]1O [AMIKACIN] | ≤ 8 µg/mL
9 | C[C@@H](O)[C@H]1C(=O)N2C(C(=O)O)=C(SCCNC=N)C[C@H]12 [IMIPENEM ANHYDROUS] | ≤ 1 µg/mL
10 | CC(C)(O/N=C(\C(=O)N[C@@H]1C(=O)N2C(C(=O)[O-])=C(C[n+]3ccccc3)CS[C@H]12)c1csc(N)n1)C(=O)O [CEFTAZIDIME] | > 128 µg/mL

Tested on: Acinetobacter baumannii
Assay: Antibacterial activity against Acinetobacter baumannii by CLSI method
Type: functional

Row | Molecule | MIC
11 | CO/N=C(\C(=O)N[C@@H]1C(=O)N2C(C(=O)O)=C(COC(C)=O)CS[C@H]12)c1csc(N)n1 [CEFOTAXIME] | ≥ 16 µg/mL
12 | C[C@@H](O)[C@H]1C(=O)N2C(C(=O)O)=C(SCCNC=N)C[C@H]12 [IMIPENEM ANHYDROUS] | ≥ 8 µg/mL
13 | CC(C)(O/N=C(\C(=O)N[C@@H]1C(=O)N2C(C(=O)[O-])=C(C[n+]3ccccc3)CS[C@H]12)c1csc(N)n1)C(=O)O [CEFTAZIDIME] | ≥ 16 µg/mL
